Source: paper PMC6857671 (Chemical Science, 2019)

System: HeLa cells
Assay: Confocal microscopic analysis of cellular location of DOX and 36
Assay type: cell-based
Details: 10 µM, 3 h, 37 °C, fluorescence confocal microscopy

SMILES: COc1cccc2c1C(=O)c1c(O)c3c(c(O)c1C2=O)C[C@@](O)(C(=O)CO)C[C@@H]3O[C@H]1C[C@H](N)[C@H](O)[C@H](C)O1 [DOX, Doxorubicin]
- cellular location of DOX fluorescence, no irradiation: efficiently transported to the nucleus
